From patent EP1354870A1, “DIHYD[…]” (CONSEJO SUPERIOR DE INVESTIGACIONES CIENTIFICAS, priority 2000, dated 2002)

Target: T1, dihydroceramide desaturase (Rattus norvegicus, UniProt Q5XIF5)
T1 construct: from tissue; host or cells: rat liver microsomes
T1 sequence (Q5XIF5 1-323): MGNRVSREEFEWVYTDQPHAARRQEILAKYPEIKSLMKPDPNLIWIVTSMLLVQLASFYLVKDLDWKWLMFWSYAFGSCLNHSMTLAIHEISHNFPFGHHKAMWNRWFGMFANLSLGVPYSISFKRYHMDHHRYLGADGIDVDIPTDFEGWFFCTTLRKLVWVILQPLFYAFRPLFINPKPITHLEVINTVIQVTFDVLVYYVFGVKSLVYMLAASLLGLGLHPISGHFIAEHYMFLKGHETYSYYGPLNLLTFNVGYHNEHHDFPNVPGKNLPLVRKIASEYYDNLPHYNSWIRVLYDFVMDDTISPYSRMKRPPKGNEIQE
Test: Inhibitory activity on dihydroceramide desaturase in rat liver microsomes (GC-MS quantification of the desaturated product)
Type: biochemical
Settings: substrate N-octanoyldihydrosphingosine 10 nmoles, NADH, 37°C for 30 minutes, without preincubation, effect dose-dependent
Procedure: The inhibitory activity of the type I compounds that is claimed in this patent was tested on rat liver microsomes, prepared as described in [Michel, C. van Echten-Deckert, G.; Rother, J.; Sandhoff, K.; Wang, E.; Merrill, A. H. J. Biol. Chem. 1997, 272, 22432-22437]. The dihydroceramide desaturase activity was determined according to the procedure described in Michel, C. van Echten-Deckert, G.; Rother, J.; Sandhoff, K.; Wang, E.; Merrill, A. H. J. Biol. Chem. 1997, 272, 22432-22437, with the following modifications: compound la in increasing doses of 0, 0.6, 1.25, 2.5, 5 and 10 nmoles, was solubilized in BSA-ethanol 9:1 (100µl) and to the resulting solution 10 nmoles of substrate dissolved in 10µl of ethanol were added. To this solution was added a total of 0.3 mg of the microsomal suspension containing the desaturase, and 30 µl of a […] solution of NADH in 0.1M phosphate buffer, pH 7.5. The suspension was incubated at 37°C for 30 minutes and the reactions were stopped by adding 0.5 mL of chloroform containing 1 nmol of N-hexanoylsphingosine as an internal standard for quantification. Repeated lipid extractions with chloroform were carried out (2 x 250 µl) and the combined organic extracts were evaporated to dryness under a stream of Nitrogen. The resulting residue was treated with 50 µl of bis-trimethylsilyltrifluoroacetamide at 25°C for 60 minutes. […]

SMILES: CCCCCCCCCCCCCC1=C(C(O)C(CO)NC(=O)CCCCCCC)C1 (single isomer, unassigned) [la]
- IC50: 0.052 µM
